This passage reports TGI results from PubChem BioAssay (NCI).

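Compound exposure: 48 hours, 5 concentrations, 96-well plates. TGI denotes the concentration required for complete inhibition of growth.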

Assay in all cases: DTP human tumour cell line panel, 48 h
For test [1], the system named is MOLT-4 leukemia.
Test [2] has as its system NCI-H460 lung.
The test system of test [3] is NCI-H226 lung.
Test [4] relates to SK-MEL-5 melanoma.
The test system of test [5] is 786-0 renal.
Test [6] relates to A549 NSCLC.
The test system of test [7] is TK-10 renal.
For test [8], the system named is CCRF-CEM leukemia.
Test [9] deals with HCC-2998 colon.
In test [10] the test system is K-562 leukemia.
Test [11] relates to HT29 colon.
The subject of test [12] is SR leukemia.
Test [13] concerns LOX IMVI melanoma.
The test system of test [14] is SF-539 CNS.
Test [15] deals with OVCAR-8 ovarian.
Test [16] has as its system HL-60(TB) leukemia.
Test [17] has as its system MDA-MB-231 breast.
In test [18] the test system is DU-145 prostate.
In test [19] the test system is HS 578T breast.

With `C=C1C(=O)OC2C[C@H](C)C3CC(=O)C(C)=C3CC12` (stereo partly drawn), the TGI amounted to 23.3 µM in test [1]; 51.6 µM in test [2]; 30.6 µM in test [3]; 33.3 µM in test [4]; 26.1 µM in [5]; 69.1 µM in [6]. The TGI in test [7] came to 30.5 µM; in [8], 15.7 µM; in test [9], 29.2 µM; in test [10], 23.1 µM; in [11] it was 31 µM; in test [12], 22.3 µM. Further, the TGI in test [13] was 30.4 µM; in test [14] it was 35 µM; in test [15], 39.3 µM; in [16], 8.42 µM.

Consider `CCOc1ccc(C2=C(Cl)c3cc(OC)c(OC)cc3C2Cl)cc1` (stereo not drawn), for which the TGI in [1] was 78.4 µM; in test [2] it was > 100 µM; in [3], > 100 µM; in [4] it was 39.3 µM; in [7], > 100 µM; in test [8] it was > 100 µM. Besides, the TGI in [11] is > 100 µM; in test [13], 45.1 µM; in [14], > 100 µM; in [15], > 100 µM; in [16], 49.4 µM.

As for `COc1cc(C2c3cc4c(cc3OC3(O)COC(=O)C23)OCO4)cc(OC)c1OC` (stereo not drawn), the TGI in test [1], in test [2], in test [3], in [6], in test [7] and in [8] was > 100 µM throughout. Besides, the TGI is > 100 µM in test [9]; > 100 µM in [10]; > 100 µM in [11]; 59.1 µM in test [12]; > 100 µM in test [13]; 79.3 µM in test [14]. Further, the TGI was > 100 µM in test [15] and 97.7 µM in test [16].

Regarding `CCCCC(NC(=O)CC)C(=O)O` (stereo not drawn), the TGI in test [1], in [2], in test [3], in test [4], in test [6] and in test [8] was > 100 µM each time. The TGI in test [9] is > 31.6 µM; in test [10], > 100 µM; in [11], > 100 µM; in [13], > 100 µM; in [14], > 100 µM; in test [15], > 100 µM. Besides, the TGI in test [16] is > 100 µM.

Regarding `O=c1c2c(sc3ccccc13)NCN(CCc1ccccc1)C2`, the TGI was 80.2 µM in test [1]; > 100 µM in test [2]; > 100 µM in [3]; 77.5 µM in [17]; > 100 µM in [18]; 29 µM in test [4]. The total growth inhibition concentration (TGI) in [5] is > 100 µM; in [6], > 100 µM; in test [8] it was > 100 µM; in [9], 56.9 µM; in test [10], 40.8 µM; in test [11], 53.8 µM. Moreover, the total growth inhibition concentration (TGI) in [12], in test [13], in test [14], in [15] and in test [16] was > 100 µM throughout.

Take `O=C1NC2OCC(O)C(O1)C2O` (stereo not drawn): the TGI in test [1], in test [2], in [3], in test [4], in test [5] and in test [7] was > 100 µM throughout. Besides, the total growth inhibition concentration (TGI) in [8], in test [10], in test [11], in test [12], in test [13] and in test [14] was > 100 µM each time. Moreover, the TGI in test [15] and in test [16] was > 100 µM in each case.

Take `CC1=C2C(=O)C3[C@@H](CCC4=CC(=O)CC[C@@]43C)C2CC[C@]12O[C@@H]1C[C@H](C)CN[C@H]1[C@H]2C` (stereo partly drawn): the TGI in [1] was 41.4 µM; in test [2] it was > 100 µM; in test [3] it was > 100 µM; in test [4], > 100 µM; in test [5], > 100 µM; in test [6], > 100 µM. Besides, the TGI in test [7] is 98.7 µM; in test [8] it was 40.1 µM; in test [9], > 100 µM; in test [10], 36.4 µM; in [11], > 100 µM; in [12], 43.4 µM. For the same compound, the TGI is > 100 µM in [13], > 100 µM in test [14], > 100 µM in test [15] and 28.2 µM in [16].

Regarding `CC(C)=CCC/C(C)=C/CC/C(C)=C/CC/C=C(\C)CC/C=C(\C)CCC1SC1(C)C` (stereo not drawn), the TGI in test [1], in test [2], in test [3], in test [4], in test [5] and in test [6] was > 100 µM throughout. For the same compound, the total growth inhibition concentration (TGI) in test [7], in test [8], in [9], in test [10], in test [11] and in [13] was > 100 µM in each case. The TGI in test [14], in [15] and in test [16] was > 100 µM throughout.

`Cc1ccc(-c2c(C#N)c(-c3ccc([N+](=O)[O-])cc3)c(C#N)c(=O)n2NS(=O)(=O)c2ccc(C)cc2)cc1`: the TGI in test [1] is 50.1 µM; in test [2], > 100 µM; in test [3], > 100 µM; in test [17] it was > 100 µM; in [4], 48.7 µM; in test [5], > 100 µM. For the same compound, the TGI in [19] was 95.8 µM; in [6], > 100 µM; in test [7], > 100 µM; in test [8], 73.2 µM; in [9], > 100 µM; in [10], > 100 µM. Besides, the TGI in [11] is > 100 µM; in [13], > 100 µM; in test [14] it was > 100 µM; in [15] it was > 100 µM; in test [16], 84.3 µM.

One may read the TGI as the concentration at which net growth stops. A low value points to more potent growth arrest.
